Legend:
human sEH = target: T1, human sEH (Homo sapiens, UniProt P34913); assay: FRET competitive displacement assay; type: binding; settings: for residence time: read-out: t1/2 (residence time on the enzyme)
T1 sequence (P34913 1-555): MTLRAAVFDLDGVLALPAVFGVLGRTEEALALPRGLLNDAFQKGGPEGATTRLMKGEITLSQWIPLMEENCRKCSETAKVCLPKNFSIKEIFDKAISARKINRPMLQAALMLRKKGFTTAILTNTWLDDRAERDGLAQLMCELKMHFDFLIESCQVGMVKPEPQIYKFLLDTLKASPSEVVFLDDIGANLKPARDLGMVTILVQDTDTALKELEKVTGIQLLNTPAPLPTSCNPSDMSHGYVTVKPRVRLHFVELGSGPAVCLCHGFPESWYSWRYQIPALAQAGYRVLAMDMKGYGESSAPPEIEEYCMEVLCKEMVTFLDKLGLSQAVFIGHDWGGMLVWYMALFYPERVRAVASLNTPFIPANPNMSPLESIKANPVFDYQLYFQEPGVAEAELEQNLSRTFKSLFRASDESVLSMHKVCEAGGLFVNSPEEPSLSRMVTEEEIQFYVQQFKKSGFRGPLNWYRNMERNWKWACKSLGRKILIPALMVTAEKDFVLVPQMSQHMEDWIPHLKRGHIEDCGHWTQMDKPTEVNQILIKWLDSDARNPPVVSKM

[1] = target: T2, recombinant purified human sEH (Homo sapiens, UniProt P34913); assay: sEH inhibition, kinetic fluorescent assay with CMNPC substrate; type: biochemical
T2 sequence (P34913 1-555): T1 sequence (P34913 1-555)

Structure (SMILES) | koff (human sEH) | residence time (human sEH) | inhibition potency in words [1]
O=C(NCCCCCCNC(=O)NCC12CC3CC(CC(C3)C1)C2)NCC12CC3CC(CC(C3)C1)C2 [1c] | 0.00116 s⁻¹ | 10 min | 
O=C(NCC12CC3CC(CC(C3)C1)C2)Nc1ccc(NC(=O)NCC23CC4CC(CC(C4)C2)C3)cc1 [1e] |  |  | poor potency
O=C(NCC1CCN(C(=O)NCC23CC4CC(CC(C4)C2)C3)CC1)NCC12CC3CC(CC(C3)C1)C2 [1f] |  |  | poor potency
CC(NC(=O)NCCCCNC(=O)NC(C)C12CC3CC(CC(C3)C1)C2)C12CC3CC(CC(C3)C1)C2 (centres unmarked) [2b] | 0.00142 s⁻¹ | 8 min | 
O=C(NCCCCCCCCNC(=O)NC1C2CC3CC(C2)CC1C3)NC1C2CC3CC(C2)CC1C3 (centres unmarked) [3d] | 0.00461 s⁻¹ | 2.5 min | 
